Data: patent publication US20240217990A1 (Gilead Sciences, Inc., priority 2021, published 2024)

Legend:
[1] = target: T1, TLR8 (Homo sapiens, UniProt Q9NR97); assay: TLR8 human PBMC cell-based assay (antagonist, Compound A stimulated cytokine release); settings: human PBMCs; TLR8 agonist Compound A 800 nM, 6 hours; cytokines (TNFa and IL 12p40) in supernatant; read-out: TLR-8 EC50
T1 construct: Human peripheral blood mononuclear cells (PBMCs) consist of lymphocytes, monocytes and dendritic cells that express TLR7, TLR8 and TLR9; endogenous in cells; host or cells: cryopreserved human PBMCs from healthy donors
T1 sequence (Q9NR97 27-1041): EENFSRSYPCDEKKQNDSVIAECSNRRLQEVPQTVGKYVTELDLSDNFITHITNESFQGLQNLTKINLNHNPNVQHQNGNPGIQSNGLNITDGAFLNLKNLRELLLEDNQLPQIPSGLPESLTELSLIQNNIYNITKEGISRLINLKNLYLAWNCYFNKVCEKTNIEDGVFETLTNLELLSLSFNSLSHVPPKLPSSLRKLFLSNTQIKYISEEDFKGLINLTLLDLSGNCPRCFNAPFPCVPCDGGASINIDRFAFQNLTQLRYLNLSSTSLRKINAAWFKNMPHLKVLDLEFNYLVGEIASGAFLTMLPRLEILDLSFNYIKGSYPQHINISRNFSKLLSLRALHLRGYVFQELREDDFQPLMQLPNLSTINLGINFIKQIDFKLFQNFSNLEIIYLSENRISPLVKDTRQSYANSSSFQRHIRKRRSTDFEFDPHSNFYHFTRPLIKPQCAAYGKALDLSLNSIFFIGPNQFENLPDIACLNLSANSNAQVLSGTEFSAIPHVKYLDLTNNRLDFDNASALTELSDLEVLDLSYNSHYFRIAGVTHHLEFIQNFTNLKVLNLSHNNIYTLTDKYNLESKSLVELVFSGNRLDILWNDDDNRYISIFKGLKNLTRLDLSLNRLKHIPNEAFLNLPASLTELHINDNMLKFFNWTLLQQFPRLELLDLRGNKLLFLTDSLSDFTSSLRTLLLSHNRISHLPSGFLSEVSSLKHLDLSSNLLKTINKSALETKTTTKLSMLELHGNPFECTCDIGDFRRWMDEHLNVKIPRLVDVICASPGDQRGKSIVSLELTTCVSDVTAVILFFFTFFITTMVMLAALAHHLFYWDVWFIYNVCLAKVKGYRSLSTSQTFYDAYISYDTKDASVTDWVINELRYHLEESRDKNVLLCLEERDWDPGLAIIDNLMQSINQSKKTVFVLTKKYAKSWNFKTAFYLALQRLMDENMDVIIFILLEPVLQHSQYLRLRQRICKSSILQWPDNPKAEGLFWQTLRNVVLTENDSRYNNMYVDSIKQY
Summary of the method: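 Cryopreserved donor PBMCs (100,000/well, RPMI + 10% FBS) were preincubated 1 h with antagonist (10-point dose response, quadruplicate), then stimulated with Compound A (800 nM final) for 6 h at 37 °C. TNFa and IL-12p40 in supernatants were measured by electrochemiluminescence; sigmoidal fits gave EC50.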

[2] = target: T2, TLR7 (Homo sapiens, UniProt Q9NYK1); assay: TLR7 human PBMC cell-based assay (antagonist, GS-986 stimulated cytokine release); settings: human PBMCs; TLR7 agonist GS-986 400 nM, 6 hours; cytokines (IL-6 and IFNα) in supernatant; read-out: TLR-7 EC50
T2 construct: Human peripheral blood mononuclear cells (PBMCs) consist of lymphocytes, monocytes and dendritic cells that express TLR7, TLR8 and TLR9; endogenous in cells; host or cells: cryopreserved human PBMCs from healthy donors
T2 sequence (Q9NYK1 27-1049): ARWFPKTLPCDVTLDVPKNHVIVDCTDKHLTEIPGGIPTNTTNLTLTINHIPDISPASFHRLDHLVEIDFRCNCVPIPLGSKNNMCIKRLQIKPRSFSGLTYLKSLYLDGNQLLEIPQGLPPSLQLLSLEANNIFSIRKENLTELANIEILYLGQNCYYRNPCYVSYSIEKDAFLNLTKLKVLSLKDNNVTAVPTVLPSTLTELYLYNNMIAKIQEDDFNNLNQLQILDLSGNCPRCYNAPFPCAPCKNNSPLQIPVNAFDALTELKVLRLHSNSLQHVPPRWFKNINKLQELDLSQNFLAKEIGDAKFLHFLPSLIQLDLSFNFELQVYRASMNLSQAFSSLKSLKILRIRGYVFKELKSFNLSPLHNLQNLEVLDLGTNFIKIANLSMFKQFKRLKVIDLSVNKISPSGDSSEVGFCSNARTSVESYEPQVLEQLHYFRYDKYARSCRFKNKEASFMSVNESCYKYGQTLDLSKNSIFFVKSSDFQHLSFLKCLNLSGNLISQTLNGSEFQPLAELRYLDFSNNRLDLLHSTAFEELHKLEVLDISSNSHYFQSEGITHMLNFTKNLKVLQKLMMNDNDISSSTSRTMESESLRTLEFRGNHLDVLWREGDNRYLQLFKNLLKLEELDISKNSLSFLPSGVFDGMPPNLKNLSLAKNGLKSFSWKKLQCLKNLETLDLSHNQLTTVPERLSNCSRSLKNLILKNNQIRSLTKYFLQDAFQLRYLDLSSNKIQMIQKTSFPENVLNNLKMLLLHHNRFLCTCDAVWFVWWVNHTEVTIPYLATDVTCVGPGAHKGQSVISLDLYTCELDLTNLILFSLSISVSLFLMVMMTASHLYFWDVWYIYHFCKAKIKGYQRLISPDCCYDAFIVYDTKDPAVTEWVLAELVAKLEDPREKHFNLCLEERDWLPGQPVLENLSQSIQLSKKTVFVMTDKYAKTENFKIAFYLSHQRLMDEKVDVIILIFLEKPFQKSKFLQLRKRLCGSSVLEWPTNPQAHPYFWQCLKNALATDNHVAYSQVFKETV
Summary of the method: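 Cryopreserved healthy-donor PBMCs (100,000/well, RPMI-1640 + 10% FBS) pre-incubated 1 h at 37 °C with antagonist (10-point dose response, quadruplicate), then stimulated 6 h with GS-986 at 400 nM final. Supernatant IL-6 and IFNα measured by electrochemiluminescence immunoassay; EC50 from sigmoidal fit.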

## Cc1cc(-c2[nH]c3cc(C4CC5(CCNCC5)C4)sc3c2C(C)C)cn2ncnc12 [Example 308]
[1]
  EC50: 3.46 nM
[2]
  EC50: 0.28 nM

## Cc1cc(-c2[nH]c3cc(C4C5CCC4CN(CC(N)=O)C5)sc3c2C(C)C)cn2ncnc12 (stereo not shown) [Example 309, 2-(8-(6-isopropyl-5-(8-methyl-[1,2,4]triazolo[1,5-a]pyridin-6-yl)-4H-thieno[3,2-b]pyrrol-2-yl)-3-azabicyclo[3.2.1]octan-3-yl)acetamide]
[1]
  EC50: 17.1 nM
[2]
  EC50: 0.95 nM
